{
  "source": "patent US10519504B2",
  "about": "“Methods for treatment of oncological disorders using epimetabolic shifters, multidimensional intracellular molecules, or environmental influencers” (Berg LLC, priority 2009, dated 2019)",
  "key": {"Bcl-2": {"test_system": "Bcl-2", "experiment": "Western blot of building block components, Bcl-2", "assay_type": "cell-based", "settings": "for Bcl-2 (summary): oncogenic cells", "description": "(§1) Skmel-28 melanoma cells were cultured in DMEM/F12 supplemented with 5% Fetal Bovine Serum (FBS) and 1× final concentration of Antibiotics. The cells were grown to 85% confluency and treated with building block components for 3, 6, 12 and 24 hours. The cells were then pelleted and a Western blot analysis was performed. The test building block components included L-Phenylylalanine, DL-Phenylylalanine, D-Phenylylalanine, L-Tyrosine, DL-Tyrosine, D-Tyrosine, 4-Hydroxy-phenylpyruvate, phenylacetate, 3-methoxy-4-hydroxymandelate (vanillylmandelate or VMA), vanillic acid, 4-hydroxy-benzoate, pyridoxine, panthenol, mevalonic acid, Acetylglycine, Acetyl-CoA, Farnesyl, and 2,3-Dimethoxy-5-methyl-p-benzoquinone.\n(§2) In the Western Blot Analysis, the cells were pelleted in cold PBS, lysed, and the protein levels were quantified using a BCA protein assay. The whole cell lysate was loaded in a 4% loading 12% running Tris-HCl gel. The proteins were then transferred to a nitrocellulose paper then blocked with a 5% milk Tris-buffered solution for 1 hour. The proteins were then exposed to primary antibodies (Bcl-2 and Caspase-3) overnight. The nitrocellulose paper was then exposed to Pico Chemilluminescent for 5 min and the protein expression was recorded. After exposure, actin was quantified using the same method. Using ImageJ the levels of protein expression were quantified. A t-Test was used to analyze for statistical significance."}, "Caspase-3": {"test_system": "Caspase-3", "experiment": "Western blot of building block components, Caspase-3", "assay_type": "cell-based", "settings": "for Caspase-3 expression: Skmel-28; for Caspase-3 expression (summary): oncogenic cells", "description": "as §1, §2"}, "[1]": {"test_system": "neonatal fibroblast cells", "experiment": "Cell proliferation assay (coulter counter)", "assay_type": "cell-based", "settings": "HB 500 nM, 5 μM, 25 μM, alone and with benzoquinone 25, 50, 100 μM; 24 hours", "method": "A cell proliferation assay was also performed on neonatal fibroblast cells. The concentrations of HB tested were 500 nM, 5 μM, and 25 μM. HB was also tested in combination with benzoquinone at a concentrations of 25 μM, 50 μM, and 100 μM. Melanoma cells were seeded at 40 k cells per well and were treated for 24 hours. The cells were trypsinized and quantified using a coulter counter."}, "Melanoma cells": {"test_system": "Melanoma cells", "experiment": "Cell proliferation assay (cell count) of building block combinations", "assay_type": "cell-based", "description": "This set of experiments used a cell proliferation assay to assess the effect of combining different building block molecules on cell proliferation.\nThe first study examined the effect of combining 4-Hydroxy-Benzoate with Benzoquinone. Cells were incubated for 48 hours, after which a cell count was performed for the live cells. Each test group was compared to the control, and each combination groups were compared to Benzoquinone control. The compounds were statistically analyzed for the addition of Benzoquinone.\nAdditional studies were performed testing additional molar ratios. For the first test 4-Hydroxybenzoic were tested at concentrations of 500 nM, 1 μM, and 50 μM. These concentrations were tested in combination with 2,3-Dimethoxy-5-methyl-p-benzoquinone (Benzo). The concentration of Benzo tested were 25 μM, 50 μM, and 100 μM. Melanoma cells were grown to 80% confluency and seeded in 6 well plates at a concentration of 40K cells per well. The cells were treated with CoQ10, 4-Hydroxybenzoate, Benzo, and a combination of 4-Hydroxybenzoate/Benzo.\nA T-test was performed with p<0.05 as statistically significant."}, "[2]": {"test_system": "induced pancreatic cancer", "settings": "Group H: 5 mg/kg"}, "cancer cells": {"test_system": "cancer cells", "settings": "cited from earlier work"}, "[3]": {"settings": "Skmel-28, 24 hours, concentration not given"}, "[4]": {"settings": "Skmel-28, all time points and concentrations tested (500 nM, 1 μM, 25 μM, 50 μM)"}, "[5]": {"settings": "all time points and concentrations tested (500 nM, 1 μM, 25 μM, 50 μM)"}},
  "data": [
    {"compound": "NC(Cc1ccccc1)C(=O)O", "note": "(racemic) [DL-Phenylalanine]", "values": [
      {"measurement": "Bcl-2 expression", "setting": "Bcl-2; [3]", "result": "statistically significant decrease in Bcl-2"},
      {"measurement": "Caspase-3 expression", "setting": "Caspase-3; 3 hours, concentration not given", "result": "statistically significant increase in Caspase-3"}
    ]},
    {"compound": "NC(Cc1ccc(O)cc1)C(=O)O", "note": "(racemic) [DL-Tyrosine]", "values": [
      {"measurement": "Bcl-2 expression", "setting": "Bcl-2; Skmel-28, 1 μM and 15 μM, 12 hours", "result": "statistical decrease in Bcl-2 expression"},
      {"measurement": "Bcl-2 expression", "setting": "Bcl-2; Skmel-28, 5 μM, 24 hours", "result": "statistical decrease in Bcl-2 expression"},
      {"measurement": "Caspase-3 expression", "setting": "Caspase-3; 5 μM and 15 μM, 12 hours", "result": "increase in Caspase-3 expression"}
    ]},
    {"compound": "O=C(O)C(=O)Cc1ccc(O)cc1", "note": "[4-Hydroxy-phenylpyruvate]", "values": [
      {"measurement": "Bcl-2 expression", "setting": "Bcl-2; Skmel-28, 5 μM and 15 μM, 24 hours", "result": "significant reduction in Bcl-2 expression"},
      {"measurement": "Bcl-2 (summary)", "setting": "Bcl-2", "result": "significant reduction in Bcl-2"},
      {"measurement": "Caspase-3 expression", "setting": "Caspase-3; 5 μM and 15 μM, 12 hours", "result": "significant increase in Caspase-3 expression"},
      {"measurement": "Caspase-3 expression (summary)", "setting": "Caspase-3", "result": "increase in Caspase-3 expression"}
    ]},
    {"compound": "O=C(O)c1ccc(O)cc1", "note": "[4-Hydroxybenzoate, 4-hydroxy-benzoate]", "values": [
      {"measurement": "fibroblast cell number", "setting": "[1]", "result": "did not show a significant reduction in fibroblast cells"},
      {"measurement": "Bcl-2 expression", "setting": "Bcl-2; Skmel-28, 15 μM, 24 hours", "result": "significant reduction in Bcl-2 expression"},
      {"measurement": "cell number vs control", "setting": "Melanoma cells; 48 hours", "result": "significant decrease in cell number"},
      {"measurement": "cell proliferation", "setting": "Melanoma cells; HB 500 nM, 1 μM, 50 μM", "result": "significant decrease in cell proliferation"}
    ]},
    {"compound": "CC(=O)SCCNC(=O)CCNC(=O)[C@H](O)C(C)(C)COP(=O)(O)OP(=O)(O)OC[C@H]1O[C@@H](n2cnc3c(N)ncnc32)[C@H](O)[C@@H]1OP(=O)(O)O", "note": "[Acetyl-CoA]", "values": [
      {"measurement": "Bcl-2 expression", "setting": "Bcl-2; [4]", "result": "no significant observed reduction in Bcl-2"},
      {"measurement": "Caspase-3 expression", "setting": "Caspase-3; [5]", "result": "no significant observed reduction in Bcl-2 or increase in Caspase-3 expression"}
    ]},
    {"compound": "CC(=O)NCC(=O)O", "note": "[Acetylglycine]", "values": [
      {"measurement": "Bcl-2 expression", "setting": "Bcl-2; Skmel-28, 5 μM and 25 μM, 12 hours", "result": "significant decrease in Bcl-2 expression"},
      {"measurement": "Bcl-2 expression", "setting": "Bcl-2; Skmel-28, 100 μM, 24 hour", "result": "significant decrease in Bcl-2"}
    ]},
    {"compound": "N[C@H](Cc1ccccc1)C(=O)O", "note": "[D-Phenylalanine]", "values": [
      {"measurement": "Bcl-2 expression", "setting": "Bcl-2; Skmel-28, 5 μM and 25 μM, 3 hours", "result": "significant reduction"},
      {"measurement": "Bcl-2 expression", "setting": "Bcl-2; Skmel-28, 5 μM, 25 μM and 100 μM, 6 hours", "result": "significant reduction in Bcl-2 expression"},
      {"measurement": "Caspase-3 expression", "setting": "Caspase-3; 5 μM and 100 μM, 6 hours", "result": "significant increase in Caspase-3 expression"}
    ]},
    {"compound": "N[C@H](Cc1ccc(O)cc1)C(=O)O", "note": "[D-Tyrosine]", "values": [
      {"measurement": "Bcl-2 expression", "setting": "Bcl-2; Skmel-28, 5 μM and 15 μM, 12 and 24 hours", "result": "reduction in Bcl-2 expression"},
      {"measurement": "Caspase-3 expression", "setting": "Caspase-3; 1 μM, 12 and 24 hour", "result": "increase in Caspase-3 expression"},
      {"measurement": "Caspase-3 expression", "setting": "Caspase-3; 5 μM, 3, 12 and 24 time periods", "result": "significantly increased"},
      {"measurement": "Caspase-3 expression", "setting": "Caspase-3; 5 μM, 12 hour", "result": "increase in Caspase-3 expression"}
    ]},
    {"compound": "COc1cccc2c1C(=O)c1c(O)c3c(c(O)c1C2=O)C[C@@](O)(C(=O)CO)C[C@@H]3O[C@H]1C[C@H](N)[C@H](O)[C@H](C)O1", "note": "[Doxorubicin, reference compound]", "values": [
      {"measurement": "survival after 28 days", "setting": "[2]", "result": "a significant number of the animals in Group H had died due to the toxicity of Doxorubicin"}
    ]},
    {"compound": "N[C@@H](Cc1ccccc1)C(=O)O", "note": "[L-Phenylalanine]", "values": [
      {"measurement": "Bcl-2 expression", "setting": "Bcl-2; Skmel-28, 5 μM, 6 hours", "result": "statistically significant decrease in Bcl-2"},
      {"measurement": "Bcl-2 expression", "setting": "Bcl-2; Skmel-28, 25 μM, 12 hours", "result": "statistically significant decrease in Bcl-2"},
      {"measurement": "Bcl-2 expression", "setting": "Bcl-2; Skmel-28, 100 μM, 3 hours and 12 hours", "result": "statistically significant decrease in Bcl-2"},
      {"measurement": "Bcl-2 expression compared to the control", "setting": "Bcl-2; Skmel-28, remaining time points, not statistically significant", "result": "constant trend for the decrease in Bcl-2"},
      {"measurement": "Bcl-2 (summary)", "setting": "Bcl-2", "result": "significant reduction in Bcl-2"},
      {"measurement": "Caspase-3 expression", "setting": "Caspase-3; 25 μM, 12 hours", "result": "statistically significant increase in Caspase-3"},
      {"measurement": "Caspase-3 expression (summary)", "setting": "Caspase-3", "result": "increase in Caspase-3 expression"}
    ]},
    {"compound": "N[C@@H](Cc1ccc(O)cc1)C(=O)O", "note": "[L-Tyrosine]", "values": [
      {"measurement": "Bcl-2 expression", "setting": "Bcl-2; Skmel-28, 5 μM, 24 hours", "result": "statistically significant decrease in Bcl-2"},
      {"measurement": "Bcl-2 expression", "setting": "Bcl-2; Skmel-28, 500 μM and 5 μM, 24 hours", "result": "statistically significant decrease in Bcl-2"},
      {"measurement": "Bcl-2 (summary)", "setting": "Bcl-2", "result": "significant reduction in Bcl-2"},
      {"measurement": "Caspase-3 expression", "setting": "Caspase-3; 500 nM, 12 hours", "result": "statistically significant increase in Caspase-3"},
      {"measurement": "Caspase-3 expression (summary)", "setting": "Caspase-3", "result": "increase in Caspase-3 expression"}
    ]},
    {"compound": "C[C@@](O)(CCO)CC(=O)O", "note": "[Mevalonic Acid, mevalonic acid]", "values": [
      {"measurement": "Bcl-2 expression", "setting": "Bcl-2; [4]", "result": "no significant reduction in Bcl-2 expression"},
      {"measurement": "Caspase-3 expression", "setting": "Caspase-3; [5]", "result": "no significant reduction in Bcl-2 expression or an increase in Caspase-3 expression"}
    ]},
    {"compound": "CC(C)(CO)[C@@H](O)C(=O)NCCCO", "note": "[Panthenol, panthenol]", "values": [
      {"measurement": "Bcl-2 expression", "setting": "Bcl-2; melanoma cells, 25 μM", "result": "significant reduction in Bcl-2 expression"}
    ]},
    {"compound": "Cc1ncc(CO)c(CO)c1O", "note": "[Pyridoxine, pyridoxine]", "values": [
      {"measurement": "Bcl-2 expression", "setting": "Bcl-2; [3]", "result": "significant reduction in Bcl-2"}
    ]},
    {"compound": "COc1cc(C(O)C(=O)O)ccc1O", "note": "(stereo not drawn) [VMA, 3-methoxy-4-hydroxymandelate]", "values": [
      {"measurement": "Bcl-2 expression, trend", "setting": "Bcl-2; Skmel-28, 100 nM to 100 μM", "result": "downward trend of Bcl-2 expression"},
      {"measurement": "apoptotic effect (Bcl-2, Caspase-3)", "setting": "Bcl-2; Skmel-28, 100 nM to 100 μM", "result": "no statistically significant apoptotic effect"}
    ]},
    {"compound": "COc1cc(C(=O)O)ccc1O", "note": "[Vanillic Acid, vanillic acid]", "values": [
      {"measurement": "Bcl-2 expression", "setting": "Bcl-2; Skmel-28, 500 nM and 5 μM, 24 hour", "result": "significantly reduce Bcl-2 expression"},
      {"measurement": "Bcl-2 expression", "setting": "Bcl-2; Skmel-28, 15 μM, 3 hours", "result": "reduction in Bcl-2 expression"},
      {"measurement": "Caspase-3 expression", "setting": "Caspase-3; 15 μM, 24 hours", "result": "significant increase in Caspase-3 expression"}
    ]},
    {"compound": "C=C1/C(=C\\C=C2/CCC[C@]3(C)[C@@H]([C@H](C)CCCC(C)(C)O)CC[C@@H]23)C[C@@H](O)C[C@@H]1O", "note": "[Vitamin D3, 1α, 25-dihydroxyvitamin D3]", "values": [
      {"measurement": "expression of BCL2 and BCL-XL", "setting": "cancer cells; Deeb et al. 2007", "result": "repressing the expression of the anti-apoptotic, pro-survival proteins BCL2 and BCL-XL"},
      {"measurement": "expression of pro-apoptotic proteins (BAX, BAK, BAD)", "setting": "cancer cells; Deeb et al. 2007", "result": "inducing the expression of pro-apoptotic proteins"},
      {"measurement": "p21WAFI/CIPI gene transcription", "setting": "cancer cells; Deeb et al. 2007", "result": "induce gene transcription of the cyclin-dependent kinase inhibitor p21WAFI/CIPI"},
      {"measurement": "expression of VEGF", "setting": "cancer cells; Masuda and Jones, 2006", "result": "inhibit the expression of vascular endothelial growth factor (VEGF)"},
      {"measurement": "proliferation of tumor-derived endothelial cells", "setting": "cancer cells; Masuda and Jones, 2006", "result": "inhibit the proliferation of some tumor-derived endothelial cells"}
    ]}
  ]
}
